We go through 4 compounds from patent US8575176B2, “Heteroaromatic pyrazinoylguanidine sodium channel blockers” (Parion Sciences, Inc., priority 2008, dated 2013).

Where a name gives a salt, the structure may show the parent alone.

In series [1] the target is T1, epithelial sodium channels (ENaC) (Homo sapiens, UniProt P37088+P51168+P51170).
T1 construct: endogenous in cells; host or cells: primary human airway epithelial cells cultured at air-liquid interface
T1 sequence (P37088 1-669): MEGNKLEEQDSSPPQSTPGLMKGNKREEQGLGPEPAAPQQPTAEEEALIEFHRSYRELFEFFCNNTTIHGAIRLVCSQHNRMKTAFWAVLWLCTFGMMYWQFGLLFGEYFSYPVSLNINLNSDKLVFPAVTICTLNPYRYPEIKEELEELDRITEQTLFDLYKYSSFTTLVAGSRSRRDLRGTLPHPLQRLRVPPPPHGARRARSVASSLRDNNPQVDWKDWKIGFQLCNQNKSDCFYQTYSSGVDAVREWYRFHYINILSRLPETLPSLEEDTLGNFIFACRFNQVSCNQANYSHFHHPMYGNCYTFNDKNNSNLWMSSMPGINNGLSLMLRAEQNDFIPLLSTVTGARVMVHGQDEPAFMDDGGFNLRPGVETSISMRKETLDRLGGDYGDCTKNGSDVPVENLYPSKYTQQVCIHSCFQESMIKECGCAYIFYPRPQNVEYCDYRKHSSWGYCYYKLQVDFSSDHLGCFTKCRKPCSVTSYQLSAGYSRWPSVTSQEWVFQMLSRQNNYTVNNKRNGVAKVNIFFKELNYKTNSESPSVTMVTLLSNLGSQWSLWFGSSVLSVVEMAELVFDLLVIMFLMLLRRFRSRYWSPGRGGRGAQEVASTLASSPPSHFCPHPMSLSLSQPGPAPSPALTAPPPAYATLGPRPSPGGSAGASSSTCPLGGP
T1 sequence (P51168 1-640): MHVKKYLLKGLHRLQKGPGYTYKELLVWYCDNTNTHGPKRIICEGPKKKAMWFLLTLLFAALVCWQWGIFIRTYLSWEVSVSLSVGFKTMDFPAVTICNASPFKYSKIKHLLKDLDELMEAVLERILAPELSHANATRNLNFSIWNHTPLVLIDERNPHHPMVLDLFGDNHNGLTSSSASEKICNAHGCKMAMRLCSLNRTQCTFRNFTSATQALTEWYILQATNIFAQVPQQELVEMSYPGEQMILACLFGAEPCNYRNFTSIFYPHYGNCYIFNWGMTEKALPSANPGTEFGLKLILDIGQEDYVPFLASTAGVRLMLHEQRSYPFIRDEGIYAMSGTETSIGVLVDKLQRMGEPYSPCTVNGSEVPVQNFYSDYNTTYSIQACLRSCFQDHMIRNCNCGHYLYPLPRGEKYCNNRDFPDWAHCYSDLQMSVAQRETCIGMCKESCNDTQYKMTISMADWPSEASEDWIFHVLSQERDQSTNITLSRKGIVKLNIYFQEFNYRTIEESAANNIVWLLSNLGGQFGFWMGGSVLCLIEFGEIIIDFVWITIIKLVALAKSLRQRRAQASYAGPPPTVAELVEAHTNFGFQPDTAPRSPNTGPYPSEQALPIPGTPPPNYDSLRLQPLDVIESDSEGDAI
T1 sequence (P51170 1-649): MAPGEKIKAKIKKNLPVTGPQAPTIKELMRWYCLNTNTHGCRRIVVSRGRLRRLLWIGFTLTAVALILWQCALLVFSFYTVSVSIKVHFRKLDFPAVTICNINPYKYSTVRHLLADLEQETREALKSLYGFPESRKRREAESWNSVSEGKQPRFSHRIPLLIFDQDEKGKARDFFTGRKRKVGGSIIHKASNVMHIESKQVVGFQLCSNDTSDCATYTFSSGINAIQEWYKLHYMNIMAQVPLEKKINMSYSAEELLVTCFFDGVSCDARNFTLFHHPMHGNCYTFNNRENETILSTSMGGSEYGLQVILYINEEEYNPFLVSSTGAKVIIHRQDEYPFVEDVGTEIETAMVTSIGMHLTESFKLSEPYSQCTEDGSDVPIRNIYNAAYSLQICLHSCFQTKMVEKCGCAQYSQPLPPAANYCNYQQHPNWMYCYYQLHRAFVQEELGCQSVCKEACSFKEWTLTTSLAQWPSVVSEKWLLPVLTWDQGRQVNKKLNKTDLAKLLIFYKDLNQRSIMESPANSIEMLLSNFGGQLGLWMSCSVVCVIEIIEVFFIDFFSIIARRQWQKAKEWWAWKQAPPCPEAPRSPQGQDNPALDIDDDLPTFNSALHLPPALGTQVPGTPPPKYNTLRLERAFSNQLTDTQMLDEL
The series can be described thus: In vitro sodium channel blocking activity (short circuit current, Ussing chambers), human airway cells. The format is cell-based. The note with it: freshly excised cell from human airways. How it is done: In Vitro Measure of Sodium Channel Blocking Activity and Reversibility
(§1) One assay used to assess mechanism of action and/or potency of the compounds of the present invention involves the determination of lumenal drug inhibition of airway epithelial sodium currents measured under short circuit current (ISC) using airway epithelial monolayers mounted in Ussing chambers. Cells obtained from freshly excised human, dog, sheep or rodent airways are seeded onto porous 0.4 micron Snapwell™ Inserts (CoStar), cultured at air-liquid interface (ALI) conditions in hormonally defined media, and assayed for sodium transport activity (ISC) while bathed in Krebs Bicarbonate Ringer (KBR) in Using chambers. All test drug additions are to the lumenal bath with half-log dose addition protocols (from 1×10^−11 M to 3×10^−5 M), and the cumulative change in ISC (inhibition) recorded. All drugs are prepared in dimethyl sulfoxide as stock solutions at a concentration of 1×10^−2 M and stored at −20° C. […] After the maximal concentration ([…]) is administered, the lumenal bath is exchanged three times with fresh drug-free KBR solution, and the resultant ISC measured after each wash for approximately 5 minutes in duration. Reversibility is defined as the percent return to the baseline value for sodium current after the third wash. All data from the voltage clamps are collected via a computer interface and analyzed off-line.
(§2) Dose-effect relationships for all compounds are considered and analyzed by the Prism 3.0 program.

Series [2] deals with T2, epithelial sodium channels (ENaC) (Canis lupus familiaris, UniProt A0A8I3MKE6+A0A8I3Q679+Q95165).
T2 sequence (A0A8I3Q679 1-649): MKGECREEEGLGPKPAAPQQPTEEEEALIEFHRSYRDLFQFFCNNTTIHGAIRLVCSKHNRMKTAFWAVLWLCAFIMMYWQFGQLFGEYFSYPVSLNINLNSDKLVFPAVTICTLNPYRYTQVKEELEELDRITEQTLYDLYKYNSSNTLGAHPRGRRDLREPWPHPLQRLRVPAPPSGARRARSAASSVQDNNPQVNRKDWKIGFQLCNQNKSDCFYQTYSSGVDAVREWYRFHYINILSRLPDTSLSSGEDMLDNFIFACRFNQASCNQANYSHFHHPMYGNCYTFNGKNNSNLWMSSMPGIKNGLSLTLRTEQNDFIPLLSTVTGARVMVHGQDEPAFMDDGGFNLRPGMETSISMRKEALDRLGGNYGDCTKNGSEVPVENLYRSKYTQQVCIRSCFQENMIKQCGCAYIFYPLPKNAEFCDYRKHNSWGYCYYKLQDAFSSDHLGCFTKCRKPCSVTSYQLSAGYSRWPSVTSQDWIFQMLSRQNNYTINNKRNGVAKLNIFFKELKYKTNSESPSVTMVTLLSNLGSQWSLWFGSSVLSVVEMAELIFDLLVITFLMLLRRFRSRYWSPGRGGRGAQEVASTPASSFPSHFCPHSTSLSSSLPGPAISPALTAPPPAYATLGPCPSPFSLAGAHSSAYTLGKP
T2 sequence (Q95165 1-641): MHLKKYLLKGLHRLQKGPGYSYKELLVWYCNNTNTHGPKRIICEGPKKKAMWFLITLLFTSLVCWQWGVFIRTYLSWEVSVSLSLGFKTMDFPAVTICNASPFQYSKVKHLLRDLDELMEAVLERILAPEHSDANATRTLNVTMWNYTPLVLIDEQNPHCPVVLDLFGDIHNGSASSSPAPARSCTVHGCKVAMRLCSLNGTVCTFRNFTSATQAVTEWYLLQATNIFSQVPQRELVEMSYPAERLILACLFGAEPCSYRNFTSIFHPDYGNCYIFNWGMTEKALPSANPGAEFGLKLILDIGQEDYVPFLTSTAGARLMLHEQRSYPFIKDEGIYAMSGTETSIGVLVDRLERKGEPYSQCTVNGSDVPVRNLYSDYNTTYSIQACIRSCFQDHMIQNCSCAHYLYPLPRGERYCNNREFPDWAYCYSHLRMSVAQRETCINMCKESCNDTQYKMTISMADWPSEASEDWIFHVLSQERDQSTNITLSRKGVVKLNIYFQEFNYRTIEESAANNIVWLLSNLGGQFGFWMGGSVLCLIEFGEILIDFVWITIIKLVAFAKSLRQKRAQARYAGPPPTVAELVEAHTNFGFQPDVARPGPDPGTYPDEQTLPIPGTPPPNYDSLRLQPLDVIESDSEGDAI
T2 sequence (A0A8I3MKE6 1-646): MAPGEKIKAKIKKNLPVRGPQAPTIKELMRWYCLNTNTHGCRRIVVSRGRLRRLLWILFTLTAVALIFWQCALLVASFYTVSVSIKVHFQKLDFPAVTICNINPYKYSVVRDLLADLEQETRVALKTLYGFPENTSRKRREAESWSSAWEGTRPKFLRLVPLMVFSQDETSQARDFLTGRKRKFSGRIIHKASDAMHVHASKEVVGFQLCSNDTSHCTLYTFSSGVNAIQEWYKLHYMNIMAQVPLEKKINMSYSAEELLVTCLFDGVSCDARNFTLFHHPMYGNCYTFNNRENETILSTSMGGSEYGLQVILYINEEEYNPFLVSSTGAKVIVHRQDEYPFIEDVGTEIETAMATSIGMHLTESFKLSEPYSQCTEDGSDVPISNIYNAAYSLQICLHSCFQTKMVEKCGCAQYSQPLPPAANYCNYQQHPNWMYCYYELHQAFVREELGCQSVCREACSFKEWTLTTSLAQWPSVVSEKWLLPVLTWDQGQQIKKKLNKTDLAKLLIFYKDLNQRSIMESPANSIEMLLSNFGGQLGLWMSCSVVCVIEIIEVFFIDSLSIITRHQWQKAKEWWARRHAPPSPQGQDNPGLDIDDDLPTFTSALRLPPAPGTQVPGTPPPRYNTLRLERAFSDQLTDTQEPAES
The series can be described thus: In vitro sodium channel blocking activity (short circuit current, Ussing chambers), dog airway cells. In kind it is cell-based. Particulars: freshly excised cell from dog airways. How it is done: as §1, with “Reversibility is defined as the percent return to the baseline value for sodium current after the third wash.” left out
as §2

The compound `C[C@H](O)C(=O)O.N=C(NCCCCc1ccc(OCC(O)CO)c2ccccc12)NC(=O)c1cc(Cl)c(N)cc1N` [Compound 26, 2,4-Diamino-5-chloro-N—(N-{4-[4-(2,3-dihydroxypropoxy)naphthalen-1-yl]butyl}carbamimidoyl)benzamide L-(+)-Lactic Acid Salt] had a melting point of 115 to 118 °C. In addition, the “Potency of Sodium Channel Blockade Relative to Amiloride” value in series [1] is on record as 30. Consider `N=C(NCCCCc1ccc2cc(OCC(O)CO)ccc2c1)NC(=O)c1nc(Cl)c(N)nc1N` (centres unmarked) [Compound 34, 3,5-Diamino-6-chloro-N—(N-{4-[6-(2,3-dihydropropoxy)naphthalen-2-yl]butyl}carbamimidoyl)pyrazine-2-carboxamide Methanesulfonic Acid Salt], for which, in series [1], the “Potency of Sodium Channel Blockade Relative to Amiloride” value is listed as 63. The same measure, in the same setting: next, `CS(=O)(=O)O.N=C(NCCCCc1ccc(OCCCN)c2ccccc12)NC(=O)c1nc(Cl)c(N)nc1N` [Compound 72, 3,5-Diamino-N—(N-{4-[4-(3-aminopropoxy)naphthalen-1-yl]butyl}carbamimidoyl)-6-chloropyrazine-2-carboxamide Methanesulfonic Acid Salt]: 164. For `CC1OC[C@@H](O)[C@H]([C@H](O)[C@@H](O)CNCCCOc2ccc3cc(CCCCN)ccc3c2)O1` (some centres unmarked) [Compound 105], the IC50 in series [2] amounted to 23.5 nM.

As a reminder, the melting point is the temperature, or range, at which the solid turns liquid. As usually defined, the IC50 is the concentration that inhibits the measured activity by half. High values mean lower potency, low ones higher potency.
